Results as given in ChEMBL document CHEMBL1134430, “Synthesis and biological activity of novel macrocyclic antifungals: acylated conjugates of the ornithine moiety of the lipopeptidolactone FR901469” (2001).
≈ marks a conversion by molar mass, not a printed value.

Tests used:
Format in all cases: functional
Mus musculus [1] = test: In vivo activity in Disseminated Murine Candidiasis Model
Candida albicans [2] = test: Minimum inhibitory concentration against Candida albicans FP633 strain
Candida parapsilosis = test: Minimum inhibitory concentration against Candida parapsilosis 15001 strain; conditions: Lodderomyces parapsilosis
Candida tropicalis [3] = test: Minimum inhibitory concentration against Candida tropicalis 8002 strain
Candida albicans [4] = test: Minimum inhibitory concentration against Candida albicans FP579 strain
[5] = (§1) Ratio of In vivo activity of drug in Disseminated Murine Candidiasis Model to that of In vivo activity of FR-901469 in Disseminated Murine Candidiasis Model
Mus musculus [6] = species on record: Mus musculus; test: Hemolytic ability to hemolyze ICR mouse RBCs in microtiter red blood cell hemolysis assay; design: concentration or dose not given beside the values
Candida tropicalis [7] = test: Minimum inhibitory concentration against Candida tropicalis 8001 strain
Aspergillus fumigatus = test: In vitro minimum inhibitory concentration against Aspergillus fumigatus TIMM0063 FPI305 was determined by the broth microdilution method.
[8] = test system: Meyerozyma guilliermondii; test: Minimum inhibitory concentration against Candida guilliermondii FP587 strain
Mus musculus [9] = test: as §1

SMILES | ED50 (Mus musculus [1]) [mg/kg] | MIC (Candida albicans [2]) [µg/mL] | MIC (Candida parapsilosis) [µg/mL] | MIC (Candida tropicalis [3]) [µg/mL] | MIC (Candida albicans [4]) [µg/mL] | Ratio [5] | Hemolysis (Mus musculus [6]) [%] | MIC (Candida tropicalis [7]) [µg/mL] | MIC (Aspergillus fumigatus) [µg/mL] | MIC [8] [µg/mL] | Ratio (Mus musculus [9])
OC(Cn1cncn1)(Cn1cncn1)c1ccc(F)cc1F [FLUCONAZOLE] | > 20 |  |  |  |  |  |  |  |  |  | 
CCCCCCCCCCCCC[C@@H]1CC(=O)N[C@H]([C@@H](C)O)C(=O)N[C@H](C)C(=O)N[C@@H](Cc2ccc(O)cc2)C(=O)N[C@@H](C(C)C)C(=O)N2C[C@H](O)C[C@H]2C(=O)N[C@H]([C@@H](C)O)C(=O)N[C@@H]([C@@H](C)O)C(=O)N2CC[C@H](O)[C@H]2C(=O)N[C@@H]([C@H](O)CC(N)=O)C(=O)NCC(=O)N[C@H]([C@@H](C)O)C(=O)N[C@@H](CCCNC(=O)[C@@H](N)CCCN)C(=O)O1.Cl | 0.54 | 0.39 | 0.39 | 1.56 | 0.78 | 0.8 | 20 | 1.56 | 0.5 | 0.39 | 
CCCCCCCCCCCCC[C@@H]1CC(=O)N[C@H]([C@@H](C)O)C(=O)N[C@H](C)C(=O)N[C@@H](Cc2ccc(O)cc2)C(=O)N[C@@H](C(C)C)C(=O)N2C[C@H](O)C[C@H]2C(=O)N[C@H]([C@@H](C)O)C(=O)N[C@@H]([C@@H](C)O)C(=O)N2CC[C@H](O)[C@H]2C(=O)N[C@@H]([C@H](O)CC(N)=O)C(=O)NCC(=O)N[C@H]([C@@H](C)O)C(=O)N[C@@H](CCCNC(=O)CCCCCN)C(=O)O1.Cl |  | 0.39 | 0.39 | 0.78 | 0.78 |  | 14 | 0.78 |  | 0.78 | 
CCCCCCCCCCCCC[C@@H]1CC(=O)N[C@H]([C@@H](C)O)C(=O)N[C@H](C)C(=O)N[C@@H](Cc2ccc(O)cc2)C(=O)N[C@@H](C(C)C)C(=O)N2C[C@H](O)C[C@H]2C(=O)N[C@H]([C@@H](C)O)C(=O)N[C@@H]([C@@H](C)O)C(=O)N2CC[C@H](O)[C@H]2C(=O)N[C@@H]([C@H](O)CC(N)=O)C(=O)NCC(=O)N[C@H]([C@@H](C)O)C(=O)N[C@@H](CCCNC(C)=O)C(=O)O1 | 4 | 0.39 (≈ 0.247 µM) | 1.56 (≈ 0.99 µM) | 1.56 (≈ 0.99 µM) | 0.78 (≈ 0.495 µM) |  | 5 | 1.56 (≈ 0.99 µM) | 1 (≈ 0.635 µM) | 0.78 (≈ 0.495 µM) | 6.2
CCCCCCCCCCCCC[C@@H]1CC(=O)N[C@H]([C@@H](C)O)C(=O)N[C@H](C)C(=O)N[C@@H](Cc2ccc(O)cc2)C(=O)N[C@@H](C(C)C)C(=O)N2C[C@H](O)C[C@H]2C(=O)N[C@H]([C@@H](C)O)C(=O)N[C@@H]([C@@H](C)O)C(=O)N2CC[C@H](O)[C@H]2C(=O)N[C@@H]([C@H](O)CC(N)=O)C(=O)NCC(=O)N[C@H]([C@@H](C)O)C(=O)N[C@@H](CCCNC(=O)CN)C(=O)O1.Cl |  | 0.39 | 0.78 | 0.78 | 0.78 |  | 67 | 0.78 | 0.5 | 0.78 | 
CCCCCCCCCCCCC[C@@H]1CC(=O)N[C@H]([C@@H](C)O)C(=O)N[C@H](C)C(=O)N[C@@H](Cc2ccc(O)cc2)C(=O)N[C@@H](C(C)C)C(=O)N2C[C@H](O)C[C@H]2C(=O)N[C@H]([C@@H](C)O)C(=O)N[C@@H]([C@@H](C)O)C(=O)N2CC[C@H](O)[C@H]2C(=O)N[C@@H]([C@H](O)CC(N)=O)C(=O)NCC(=O)N[C@H]([C@@H](C)O)C(=O)N[C@@H](CCCNC(=O)CCCCN)C(=O)O1.Cl |  | 0.39 | 0.39 | 0.78 | 0.78 |  | 20 | 0.78 |  | 0.39 | 
CCCCCCCCCCCCC[C@@H]1CC(=O)N[C@H]([C@@H](C)O)C(=O)N[C@H](C)C(=O)N[C@@H](Cc2ccc(O)cc2)C(=O)N[C@@H](C(C)C)C(=O)N2C[C@H](O)C[C@H]2C(=O)N[C@H]([C@@H](C)O)C(=O)N[C@@H]([C@@H](C)O)C(=O)N2CC[C@H](O)[C@H]2C(=O)N[C@@H]([C@H](O)CC(N)=O)C(=O)NCC(=O)N[C@H]([C@@H](C)O)C(=O)N[C@@H](CCCNC(=O)CCCN)C(=O)O1.Cl |  | 0.78 | 0.78 | 0.78 | 1.56 |  | 30 | 1.56 |  | 0.78 | 
CCCCCCCCCCCCC[C@@H]1CC(=O)N[C@H]([C@@H](C)O)C(=O)N[C@H](C)C(=O)N[C@@H](Cc2ccc(O)cc2)C(=O)N[C@@H](C(C)C)C(=O)N2C[C@H](O)C[C@H]2C(=O)N[C@H]([C@@H](C)O)C(=O)N[C@@H]([C@@H](C)O)C(=O)N2CC[C@H](O)[C@H]2C(=O)N[C@@H]([C@H](O)CC(N)=O)C(=O)NCC(=O)N[C@H]([C@@H](C)O)C(=O)N[C@@H](CCCNC(=O)CCN)C(=O)O1.Cl |  | 0.39 | 0.39 | 0.78 | 0.39 |  | 44 | 0.78 |  | 0.39 | 
C[C@@H]1[C@H](O)[C@@H](C)/C=C/C=C/C=C/C=C/C=C/C=C/C=C/[C@H](O[C@@H]2O[C@H](C)[C@@H](O)[C@H](N)[C@@H]2O)C[C@@H]2O[C@](O)(C[C@@H](O)C[C@@H](O)[C@H](O)CC[C@@H](O)C[C@@H](O)CC(=O)O[C@H]1C)C[C@H](O)[C@H]2C(=O)O [AMPHOTERICIN B] | 0.132 |  |  |  |  |  |  |  |  |  | 
CCCCCCCCCCCCC[C@@H]1CC(=O)N[C@H]([C@@H](C)O)C(=O)N[C@H](C)C(=O)N[C@@H](Cc2ccc(O)cc2)C(=O)N[C@@H](C(C)C)C(=O)N2C[C@H](O)C[C@H]2C(=O)N[C@H]([C@@H](C)O)C(=O)N[C@@H]([C@@H](C)O)C(=O)N2CC[C@H](O)[C@H]2C(=O)N[C@@H]([C@H](O)CC(N)=O)C(=O)NCC(=O)N[C@H]([C@@H](C)O)C(=O)N[C@@H](CCCNC(=O)CN(C)C)C(=O)O1.Cl | 9.1 | 0.39 | 0.39 | 0.78 | 0.78 |  | 10 | 0.78 | 0.5 | 0.2 | 10.4
CCCCCCCCCCCCC[C@@H]1CC(=O)N[C@H]([C@@H](C)O)C(=O)N[C@H](C)C(=O)N[C@@H](Cc2ccc(O)cc2)C(=O)N[C@@H](C(C)C)C(=O)N2C[C@H](O)C[C@H]2C(=O)N[C@H]([C@@H](C)O)C(=O)N[C@@H]([C@@H](C)O)C(=O)N2CC[C@H](O)[C@H]2C(=O)N[C@@H]([C@H](O)CC(N)=O)C(=O)NCC(=O)N[C@H]([C@@H](C)O)C(=O)N[C@@H](CCCNC(=O)[C@@H]2CCN2)C(=O)O1.Cl |  | 0.39 | 0.78 | 0.39 | 0.78 |  | 27 | 0.39 |  | 0.78 | 
CCCCCCCCCCCCC[C@@H]1CC(=O)N[C@H]([C@@H](C)O)C(=O)N[C@H](C)C(=O)N[C@@H](Cc2ccc(O)cc2)C(=O)N[C@@H](C(C)C)C(=O)N2C[C@H](O)C[C@H]2C(=O)N[C@H]([C@@H](C)O)C(=O)N[C@@H]([C@@H](C)O)C(=O)N2CC[C@H](O)[C@H]2C(=O)N[C@@H]([C@H](O)CC(N)=O)C(=O)NCC(=O)N[C@H]([C@@H](C)O)C(=O)N[C@@H](CCCNC(=O)CO)C(=O)O1 |  | 0.39 (≈ 0.245 µM) | 0.78 (≈ 0.49 µM) | 0.78 (≈ 0.49 µM) | 0.78 (≈ 0.49 µM) |  | 9 | 1.56 (≈ 0.98 µM) |  | 0.39 (≈ 0.245 µM) | 
CCCCCCCCCCCCC[C@@H]1CC(=O)N[C@H]([C@@H](C)O)C(=O)N[C@H](C)C(=O)N[C@@H](Cc2ccc(O)cc2)C(=O)N[C@@H](C(C)C)C(=O)N2C[C@H](O)C[C@H]2C(=O)N[C@H]([C@@H](C)O)C(=O)N[C@@H]([C@@H](C)O)C(=O)N2CC[C@H](O)[C@H]2C(=O)N[C@@H]([C@H](O)CC(N)=O)C(=O)NCC(=O)N[C@H]([C@@H](C)O)C(=O)N[C@@H](CCCN)C(=O)O1.Cl | 0.44 | 0.39 | 0.39 | 0.39 | 0.39 |  | 100 | 0.39 | 0.5 | 0.39 | 
CCCCCCCCCCCCC[C@@H]1CC(=O)N[C@H]([C@@H](C)O)C(=O)N[C@H](C)C(=O)N[C@@H](Cc2ccc(O)cc2)C(=O)N[C@@H](C(C)C)C(=O)N2C[C@H](O)C[C@H]2C(=O)N[C@H]([C@@H](C)O)C(=O)N[C@@H]([C@@H](C)O)C(=O)N2CC[C@H](O)[C@H]2C(=O)N[C@@H]([C@H](O)CC(N)=O)C(=O)NCC(=O)N[C@H]([C@@H](C)O)C(=O)N[C@@H](CCCNC(=O)CNC)C(=O)O1.Cl |  | 0.2 | 0.39 | 0.78 | 0.39 |  | 54 | 0.78 |  | 0.39 | 
